pIC50: −log10 of the molar value.
Legend:
[1] = tested on: 6 Hz (32 mA) seizures, mice; test: 6 Hz (32 mA) psychomotor seizure test; type: in vivo; conditions: Mus musculus, ip, mice; for responders at 100 mg/kg: 100 mg/kg i.p., 0.5 h, read-out: 6 Hz (32 mA): number of mice protected/number of mice tested (converted); for ED50: pretreatment time 0.5 h;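 on all read-outs here: compounds given as one i.p. dose suspended in 1% aqueous Tween 80, with the 6 Hz (32 mA) model considered to reflect focal epilepsy in humans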
Description: (§4) Both the aforementioned parameters (ED50 and TD50) enabled the calculation of protective indexes (PIs), which reflect the comparative the benefit–risk ratio of these experimental therapeutic agents.
(§5) Four mice per group were randomly assigned to each experimental group in the initial screening experiments (each mouse was used just once). Four groups, each with eight animals, received injections of different doses of the investigated substances in order to determine the ED50 or TD50 values. The PIs for the compounds investigated and reference ASMs were calculated by dividing the TD50 value, as determined in the chimney test by the respective ED50 value, as determined in the MES, scPTZ, or 6 Hz (32 mA or 44 mA) tests (PI = TD50/ED50). The PIs are a measure of the potential therapeutic window of the tested agent.

body temperature, mice = test: capsaicin-induced hypothermia test / rectal temperature; type: in vivo, mouse; conditions: 50 mg/kg i.p.
Protocol: In this study, we used the capsaicin-induced hypothermia model in mice to evaluate the effect of eutomers (R)-31, (R)-32, and (R)-33 on body temperature and to provide more data related to their on-target activity (i.e., antagonism of TRPV1) (Figure S5A–D). Capsaicin given i.p. at a dose of 5 mg/kg produced a marked decrease in rectal temperature at 15 min post injection (p < 0.0001). The temperature returned to normal values within 30–60 min after capsaicin injection. […] None of the tested compounds reversed the capsaicin-induced hypothermia.
The changes in body temperature in the capsaicin-induced hypothermia model were evaluated as described previously. Eutomers (R)-31, (R)-32, and (R)-33 were suspended in a 1% Tween 80 and administered i.p. 15 min before injection of capsaicin (5 mg/kg, i.p.). The corresponding vehicles (1% DMSO or 1% Tween 80) were given to the control animals. Using an electronic thermometer (ThermoWorks, Alpine, Utah, USA), changes in the mouse’s rectal temperature were recorded by inserting the rectal probe approximately 2 cm into the mouse’s rectum. After −15, 0, 15, 30, 60, 90, 120, and 180 min, the measurements were collected. Subsequently, the variations in rectal temperature between the baseline ([…] for the groups receiving compounds and BCTC in conjunction with the vehicle, or […] for the groups receiving the vehicle, compounds, and BCTC in combination with the capsaicin) and the corresponding time point ΔT (°C) were computed and examined.
Figure S5. Acute effects of BCTC (A), (R)-31 (B), (R)-32 (C), and (R)-33 (D) on rectal temperature in the capsaicin-induced test in mice. Capsaicin (CPS) or vehicle (1% DMSO) were injected i.p. at 0 min, as indicated by the arrows.
BCTC, (R)-31, (R)-32, and (R)-33 were suspended in 1% Tween 80 and administered i.p. 15 min before CPS or vehicle injection. The temperature was measured at -15, 0, 15, 30, 60, 90, 120, and 180 min. Since body temperature returned to control values 60 min after CPS injection, subsequent measurements are not shown.
Data are presented as the mean differences (ΔT) in rectal temperature from 0 to -15 min (time point 0 min), from 15 to 0 min (time point 15 min), from 30 to 0 min (time point 30 min), and from 60 to 0 min (time point 60 min); n = 6–8 animals/group. Statistical significance was evaluated using one-way ANOVA with Tukey’s post hoc test: […]
(1 picture or pasted object on this page, not shown here)

scPTZ seizures, mice = test: subcutaneous pentylenetetrazole (scPTZ) seizure test; type: in vivo, mouse; conditions: 100 mg/kg i.p., 0.5 h; for protection in the scPTZ seizures: four mice
Protocol: R-enantiomers (R)-31–(R)-33 due to broad and potent activity in both MES and 6 Hz (32 mA) were further evaluated in the scPTZ seizures. […] (i.e., KA-104, Figure 1) to acetyl moiety causes almost complete loss of protection against PTZ seizures.
All substances were suspended in Tween 80 (1% aqueous solution) and administered i.p. as a single injection at a volume of 10 mL/kg. On each day of experimentation, fresh solutions were prepared. The detailed in vivo procedures are described elsewhere: the maximal electroshock seizure test (MES),[83] the subcutaneous pentylenetetrazole seizure test (scPTZ),[84] the 6 Hz psychomotor seizure model (32 mA and 44 mA),[85] and the chimney test.[86] The reference ASMs were purchased from commercial suppliers: VPA (Sigma-Aldrich, St. Louis, MO, USA), LCS and LEV (UCB Pharma, Braine l’Alleud, Belgium).

TRPV1 (VR1) (h) = molecular target: T1, TRPV1 (VR1) (h) (Homo sapiens, UniProt Q8NER1); test: TRPV1 (VR1) (h) (antagonist effect); type: cell-based; conditions: human recombinant CHO cells, antagonist effect; for Kb: read-out: KB (dissociation constant)
T1 construct: host or cells: CHO cells
T1 sequence (Q8NER1 whole entry): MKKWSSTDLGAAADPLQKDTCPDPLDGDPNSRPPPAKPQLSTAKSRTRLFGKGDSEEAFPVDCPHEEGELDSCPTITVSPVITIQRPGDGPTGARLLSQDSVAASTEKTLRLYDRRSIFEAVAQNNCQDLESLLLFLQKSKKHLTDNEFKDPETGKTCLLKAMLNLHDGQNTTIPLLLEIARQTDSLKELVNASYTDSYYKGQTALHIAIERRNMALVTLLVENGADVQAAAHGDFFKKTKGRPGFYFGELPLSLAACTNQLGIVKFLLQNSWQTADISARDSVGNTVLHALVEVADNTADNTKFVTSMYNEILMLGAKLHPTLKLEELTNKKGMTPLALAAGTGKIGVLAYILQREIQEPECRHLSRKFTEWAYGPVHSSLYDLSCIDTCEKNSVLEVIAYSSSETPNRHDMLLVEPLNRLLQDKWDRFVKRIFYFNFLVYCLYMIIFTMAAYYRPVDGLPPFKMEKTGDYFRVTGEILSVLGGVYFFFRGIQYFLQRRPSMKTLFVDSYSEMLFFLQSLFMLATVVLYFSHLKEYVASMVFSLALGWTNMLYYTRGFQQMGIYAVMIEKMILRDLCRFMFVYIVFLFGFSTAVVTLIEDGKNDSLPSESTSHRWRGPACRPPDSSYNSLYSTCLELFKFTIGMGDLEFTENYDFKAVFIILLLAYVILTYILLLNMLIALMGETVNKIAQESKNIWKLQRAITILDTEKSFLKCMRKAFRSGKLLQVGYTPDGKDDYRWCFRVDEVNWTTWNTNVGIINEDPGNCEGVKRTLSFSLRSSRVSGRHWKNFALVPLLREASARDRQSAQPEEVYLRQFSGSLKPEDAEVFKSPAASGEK
Protocol: Further in vitro functional studies confirmed TRPV1 antagonist activity for (R)-31–(R)-33.
(§1) Using previously described testing methodologies, binding/functional tests were conducted on a commercial basis at Eurofins Laboratories (Poitiers, France) and Eurofins Panlabs Discovery Services Taiwan, Ltd. (New Taipei City, Taiwan); see Table S9 for more information.
Table S9. Radioligand binding and functional assays. […]
TRPV1 (VR1) (h) (antagonist effect) […]
(§2) Assays were performed commercially in Eurofins Laboratories (Poitiers, France) or Eurofins Panlabs Discovery Services
(§3) Taiwan, Ltd. (New Taipei City, Taiwan).

[2] = tested on: maximal electroshock (MES) seizures, mice; test: maximal electroshock (MES) seizure test; type: in vivo; conditions: Mus musculus, ip; for responders at 100 mg/kg: 0.5 h, read-out: MES: number of mice protected/number of mice tested; for ED50: mice, pretreatment time 0.5 h
Description: as §4, §5

[3] = molecular target: T2, Cav1.2 (h) calcium ion channel (Homo sapiens, UniProt Q13936); test: Cav1.2 (h) calcium ion channel cell-based antagonist calcium flux assay; conditions: HEK293, human recombinant HEK-293 cell, read-out: % inhibition of control agonist response
T2 construct: Eurofins
T2 sequence (Q13936 whole entry): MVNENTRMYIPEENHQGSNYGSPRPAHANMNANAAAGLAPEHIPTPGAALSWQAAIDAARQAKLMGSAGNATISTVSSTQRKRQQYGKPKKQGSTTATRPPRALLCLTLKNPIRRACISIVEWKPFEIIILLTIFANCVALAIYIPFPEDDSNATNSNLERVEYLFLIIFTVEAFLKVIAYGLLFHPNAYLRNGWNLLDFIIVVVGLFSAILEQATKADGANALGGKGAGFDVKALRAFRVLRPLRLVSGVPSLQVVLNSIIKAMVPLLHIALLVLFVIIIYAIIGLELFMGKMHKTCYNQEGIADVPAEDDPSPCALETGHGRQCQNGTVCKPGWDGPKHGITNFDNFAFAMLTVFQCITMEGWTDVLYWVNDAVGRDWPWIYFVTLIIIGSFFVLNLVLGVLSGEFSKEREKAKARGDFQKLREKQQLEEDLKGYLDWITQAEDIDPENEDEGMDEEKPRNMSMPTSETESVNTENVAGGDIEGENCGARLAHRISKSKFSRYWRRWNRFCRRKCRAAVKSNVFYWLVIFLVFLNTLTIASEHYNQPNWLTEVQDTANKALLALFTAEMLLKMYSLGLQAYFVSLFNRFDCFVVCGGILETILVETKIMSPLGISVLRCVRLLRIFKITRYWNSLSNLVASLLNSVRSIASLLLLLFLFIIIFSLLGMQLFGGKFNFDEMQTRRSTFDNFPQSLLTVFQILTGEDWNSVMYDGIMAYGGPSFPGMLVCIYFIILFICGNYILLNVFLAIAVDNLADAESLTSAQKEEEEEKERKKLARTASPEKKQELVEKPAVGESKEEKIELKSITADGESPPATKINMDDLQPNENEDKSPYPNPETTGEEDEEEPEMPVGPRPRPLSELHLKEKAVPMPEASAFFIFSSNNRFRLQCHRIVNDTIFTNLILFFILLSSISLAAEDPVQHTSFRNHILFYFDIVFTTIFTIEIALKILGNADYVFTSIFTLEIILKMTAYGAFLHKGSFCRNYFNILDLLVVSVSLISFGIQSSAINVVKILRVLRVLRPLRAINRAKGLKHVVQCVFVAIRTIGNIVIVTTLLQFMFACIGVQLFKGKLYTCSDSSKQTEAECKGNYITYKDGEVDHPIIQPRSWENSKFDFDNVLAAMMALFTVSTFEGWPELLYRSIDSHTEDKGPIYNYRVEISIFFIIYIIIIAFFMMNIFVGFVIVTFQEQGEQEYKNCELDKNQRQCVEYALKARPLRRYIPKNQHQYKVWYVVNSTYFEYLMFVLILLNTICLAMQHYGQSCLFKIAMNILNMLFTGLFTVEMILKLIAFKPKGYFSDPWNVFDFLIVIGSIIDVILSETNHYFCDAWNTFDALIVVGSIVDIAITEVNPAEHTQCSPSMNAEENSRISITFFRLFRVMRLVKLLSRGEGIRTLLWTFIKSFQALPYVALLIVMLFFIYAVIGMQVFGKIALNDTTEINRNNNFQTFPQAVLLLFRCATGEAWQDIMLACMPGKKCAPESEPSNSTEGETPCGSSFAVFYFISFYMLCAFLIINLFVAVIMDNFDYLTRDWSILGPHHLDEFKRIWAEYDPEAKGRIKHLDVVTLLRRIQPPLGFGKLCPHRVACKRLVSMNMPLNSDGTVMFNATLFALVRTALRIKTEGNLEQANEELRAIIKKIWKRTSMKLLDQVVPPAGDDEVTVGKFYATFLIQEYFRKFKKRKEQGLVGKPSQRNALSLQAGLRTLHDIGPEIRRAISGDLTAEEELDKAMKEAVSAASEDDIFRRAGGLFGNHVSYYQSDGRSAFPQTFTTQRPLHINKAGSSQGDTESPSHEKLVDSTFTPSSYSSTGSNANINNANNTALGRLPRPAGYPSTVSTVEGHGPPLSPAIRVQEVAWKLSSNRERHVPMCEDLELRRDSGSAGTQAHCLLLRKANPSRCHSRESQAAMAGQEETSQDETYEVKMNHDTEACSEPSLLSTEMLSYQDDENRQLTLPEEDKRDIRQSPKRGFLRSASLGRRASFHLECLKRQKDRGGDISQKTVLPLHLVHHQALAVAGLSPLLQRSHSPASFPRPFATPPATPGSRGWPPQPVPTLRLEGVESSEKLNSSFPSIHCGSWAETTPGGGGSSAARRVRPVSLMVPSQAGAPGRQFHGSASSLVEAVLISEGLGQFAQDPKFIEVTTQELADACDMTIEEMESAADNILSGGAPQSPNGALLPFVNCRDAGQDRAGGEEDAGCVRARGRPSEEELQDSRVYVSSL
T2 sequence (Q08289 whole entry partner): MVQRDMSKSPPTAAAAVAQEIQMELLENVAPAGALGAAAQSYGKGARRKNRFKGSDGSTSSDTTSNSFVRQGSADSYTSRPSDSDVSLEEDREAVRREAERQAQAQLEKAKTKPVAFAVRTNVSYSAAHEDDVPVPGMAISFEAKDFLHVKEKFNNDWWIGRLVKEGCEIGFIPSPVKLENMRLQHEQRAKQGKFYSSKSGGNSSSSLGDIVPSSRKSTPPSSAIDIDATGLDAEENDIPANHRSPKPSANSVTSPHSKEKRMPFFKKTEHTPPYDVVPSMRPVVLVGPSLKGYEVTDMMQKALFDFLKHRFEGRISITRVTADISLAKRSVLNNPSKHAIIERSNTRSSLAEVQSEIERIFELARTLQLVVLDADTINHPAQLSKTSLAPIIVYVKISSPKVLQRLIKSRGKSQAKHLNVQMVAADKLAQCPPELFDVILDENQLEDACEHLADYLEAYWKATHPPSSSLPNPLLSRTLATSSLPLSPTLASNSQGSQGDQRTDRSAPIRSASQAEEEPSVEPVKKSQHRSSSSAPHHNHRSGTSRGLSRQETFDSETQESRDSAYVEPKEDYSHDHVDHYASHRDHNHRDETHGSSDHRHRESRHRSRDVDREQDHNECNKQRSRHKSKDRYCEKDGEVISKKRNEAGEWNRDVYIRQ
T2 sequence (P54289 25-946 partner limits assumed): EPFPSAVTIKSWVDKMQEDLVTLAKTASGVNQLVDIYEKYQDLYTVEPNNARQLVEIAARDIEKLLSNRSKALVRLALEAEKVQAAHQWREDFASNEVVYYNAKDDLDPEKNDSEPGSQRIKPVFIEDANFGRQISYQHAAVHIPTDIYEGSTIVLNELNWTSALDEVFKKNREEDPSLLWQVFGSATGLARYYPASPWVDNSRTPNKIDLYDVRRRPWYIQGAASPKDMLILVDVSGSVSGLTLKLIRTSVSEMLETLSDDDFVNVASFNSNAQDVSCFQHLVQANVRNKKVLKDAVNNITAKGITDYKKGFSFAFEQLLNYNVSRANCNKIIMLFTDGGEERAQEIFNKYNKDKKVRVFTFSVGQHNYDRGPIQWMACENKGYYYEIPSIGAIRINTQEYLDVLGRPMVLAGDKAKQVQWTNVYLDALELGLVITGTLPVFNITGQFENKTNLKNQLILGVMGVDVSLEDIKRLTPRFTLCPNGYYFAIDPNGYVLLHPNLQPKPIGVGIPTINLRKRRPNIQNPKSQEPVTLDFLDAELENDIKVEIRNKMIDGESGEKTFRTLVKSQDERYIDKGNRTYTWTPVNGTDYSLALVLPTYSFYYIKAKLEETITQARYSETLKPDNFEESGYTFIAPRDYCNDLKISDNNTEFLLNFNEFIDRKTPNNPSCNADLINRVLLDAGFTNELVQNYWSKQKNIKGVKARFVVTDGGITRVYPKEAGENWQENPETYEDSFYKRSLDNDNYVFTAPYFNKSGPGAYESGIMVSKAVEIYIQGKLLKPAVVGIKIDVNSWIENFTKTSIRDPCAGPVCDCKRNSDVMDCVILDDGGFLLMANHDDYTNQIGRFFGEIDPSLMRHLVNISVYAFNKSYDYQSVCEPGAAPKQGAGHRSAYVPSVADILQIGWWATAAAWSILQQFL
T2 sequence (P54289 947-1103 partner limits assumed): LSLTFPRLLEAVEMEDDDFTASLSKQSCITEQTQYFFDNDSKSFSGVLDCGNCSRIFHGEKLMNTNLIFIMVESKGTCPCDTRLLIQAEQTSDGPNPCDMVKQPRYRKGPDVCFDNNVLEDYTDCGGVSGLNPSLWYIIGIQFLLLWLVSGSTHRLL
Protocol: The current body of literature consistently reports that both sodium (Navx) and Cav1.2 calcium ion channels can be involved in the pathogenesis of epilepsy[67]−[69] and neuropathic pain.[70]−[73] […] Therefore, we performed binding and functional studies toward sodium (site 2) and calcium Cav1.2 channels at concentrations of 10 μM for (R)-31−(R)-33.
as §1
Table S9. Radioligand binding and functional assays.
Cav1.2 (L-type) (h) calcium ion channel cell-based antagonist calcium flux assay […]
as §2, §3

Row | Structure (SMILES) | responders at 100 mg/kg [1] [%] | ED50 [1] [mg/kg] | effect on body (rectal) temperature, administered alone (body temperature, mice) | protection in the scPTZ seizures (scPTZ seizures, mice) | scPTZ: number of mice protected/number of mice tested (scPTZ seizures, mice) | pIC50 (TRPV1 (VR1) (h)) | Kb (TRPV1 (VR1) (h)) [nM] | responders at 100 mg/kg [2] [%] | ED50 [2] [mg/kg] | inhibition at 10 µM [3] [%]
1 | CC(=O)N[C@@H](C(=O)N1CCN(c2cccc(C(F)(F)F)c2)CC1)c1ccccc1 [(R)-31, (R)-N-(2-Oxo-1-phenyl-2-(4-(3-(trifluoromethyl)phenyl)piperazin-1-yl)ethyl)acetamide] | 100 | 34.5 | did not significantly affect body temperature | 25% | 1/4 | 5.46 | 460 | 100 | 98.4 | 75
2 | CC(=O)N[C@@H](C(=O)N1CCN(c2cccc(OC(F)(F)F)c2)CC1)c1ccccc1 [(R)-32, (R)-N-(2-Oxo-1-phenyl-2-(4-(3-(trifluoromethoxy)phenyl)piperazin-1-yl)ethyl)acetamide] | 100 | 18.8 | did not significantly affect body temperature | ineffective | 0/4 | 4.96 | 1400 | 100 | 73.9 | 31
3 | CC(=O)N[C@@H](C(=O)N1CCN(c2cccc(SC(F)(F)F)c2)CC1)c1ccccc1 [(R)-33, (R)-N-(2-Oxo-1-phenyl-2-(4-(3-((trifluoromethyl)thio)phenyl)piperazin-1-yl)ethyl)acetamide] | 100 | 23.9 | caused a significant drop in rectal temperature | ineffective | 0/4 | 4.89 | 1600 | 100 | 75.7 | 49
